Data set [1] concerns L1210. The data set can be described thus: Ratio of inhibition of [14C]-uridine incorporation into RNA in mouse L1210 cells to cellular uptake in mouse L1210 cells.
Data set [2] concerns L1210. The experiment in a line: Inhibition of RNA synthesis in mouse L1210 cells assessed as inhibition of [14C]-uridine incorporation measured per 10^6 cells at 5 uM pretreated for 1 hr followed by radiotracer addition measured after 1 hr by scintillation spectrometric analysis relative to control. Format: functional.
In data set [3] the test system is L1210. The experiment in a line: Inhibition of DNA synthesis in mouse L1210 cells assessed as inhibition of [3H]-thymidine incorporation measured per 10^6 cells at 3 uM pretreated for 1 hr followed by radiotracer addition measured after 1 hr by scintillation spectrometric analysis relative to control. Format: functional. In general terms: Incorporation of labelled thymidine or its analogues reports DNA synthesis.

For data set [4], the system named is L1210. The data set can be described thus: Inhibition of RNA synthesis in mouse L1210 cells assessed as inhibition of [14C]-uridine incorporation measured per 10^6 cells […] pretreated for 1 hr followed by radiotracer addition measured after 1 hr by scintillation spectrometric analysis relative to control. Format: functional.
The test system of data set [5] is L1210. The experiment in a line: Cellular uptake in mouse L1210 cells assessed per 10^6 cells at 3 uM up to 120 mins. Format: ADME, cell-based. Conditions: l1210, 2 h.
For data set [6], the system named is L1210. The data set can be described thus: Inhibition of RNA synthesis in mouse L1210 cells assessed as inhibition of [14C]-uridine incorporation measured per 10^6 cells at 3 uM pretreated for 1 hr followed by radiotracer addition measured after 1 hr by scintillation spectrometric analysis relative to control. Format: functional.
Data set [7] has as its system L1210. The experiment in a line: Inhibition of DNA synthesis in mouse L1210 cells assessed as inhibition of [3H]-thymidine incorporation measured per 10^6 cells […] pretreated for 1 hr followed by radiotracer addition measured after 1 hr by scintillation spectrometric analysis relative to control. Format: functional.
In data set [8] the test system is L1210. The experiment in a line: Inhibition of DNA synthesis in mouse L1210 cells assessed as inhibition of [3H]-thymidine incorporation measured per 10^6 cells at 5 uM pretreated for 1 hr followed by radiotracer addition measured after 1 hr by scintillation spectrometric analysis relative to control. Format: functional.
The subject of data set [9] is L1210. The data set can be described thus: Ratio of inhibition of [3H]-thymidine incorporation into DNA in mouse L1210 cells to cellular uptake in mouse L1210 cells.

Here are results for 5 compounds from ChEMBL document CHEMBL3272341, “Cellular pharmocodynamics of several anthrocycline antibiotics” (J Med Chem, 1976).

In general, inhibition refers to the percentage by which the read-out fell short of the control. As to `COc1cccc2c1C(=O)c1c(O)c3c(c(O)c1C2=O)C[C@@](O)([C@@H](O)CO)C[C@@H]3O[C@H]1C[C@H](N)[C@H](O)[C@H](C)O1`, the Ratio in the data set with L1210 [1] came out at 137; with L1210 [9] it was 200. Besides, the results for the inhibition at 5 µM in the data set on L1210 [2] and in the data set on L1210 [8] were 22.4% and 32%, respectively. The inhibition at 3 µM was found to be 25% in the data set with L1210 [3] and 17.9% in the data set on L1210 [6]. In addition, the results for the inhibition at 1 µM in the data set with L1210 [4] and with L1210 [7] were 10.1% and 23.7%, respectively. Also, the Drug uptake in the data set with L1210 [5] is listed as 0.16 nmol.
On to `COc1cccc2c1C(=O)c1c(O)c3c(c(O)c1C2=O)C[C@@](O)(C(C)O)C[C@@H]3O[C@H]1C[C@H](N)[C@H](O)[C@H](C)O1` (stereo not given in full), for which the Ratio in the data set on L1210 [1] is on record as 88; in the data set with L1210 [9], 94. Further, the figures for the inhibition at 5 µM in the data set with L1210 [2] and in the data set with L1210 [8] were 46.4% and 36.8%, respectively. The values for the inhibition at 3 µM in the data set with L1210 [3] and in the data set with L1210 [6] were 30.8% and 28.9%, respectively. Moreover, the inhibition at 1 µM with L1210 [4] was 11.2%; in the data set with L1210 [7], 12.1%. The compound further had a Drug uptake in the data set with L1210 [5] of 0.33 nmol.
Regarding `COc1cccc2c1C(=O)c1c(O)c3c(c(O)c1C2=O)C[C@@](O)(C(C)=O)C[C@@H]3O[C@H]1C[C@H](N)[C@H](O)[C@H](C)O1` [DAUNORUBICIN], the figures for the Ratio in the data set with L1210 [1] and in the data set with L1210 [9] were 155 and 119, respectively. Further, the results for the inhibition at 5 µM in the data set with L1210 [2] and in the data set on L1210 [8] were 74.8% and 83%, respectively. Moreover, the inhibition at 3 µM is 68.8% with L1210 [3] and 69.8% in the data set with L1210 [6]. Moreover, the inhibition at 1 µM with L1210 [4] was 47.6%; in the data set with L1210 [7] it was 37%. Further, in the data set with L1210 [5], the Drug uptake is given as 0.31 nmol.
On to `COc1cccc2c1C(=O)c1c(O)c3c(c(O)c1C2=O)C[C@@](O)(C(=O)CO)C[C@@H]3O[C@H]1C[C@H](N)[C@H](O)[C@H](C)O1` [DOXORUBICIN], for which the Ratio in the data set with L1210 [1] was 121; with L1210 [9], 152. Moreover, the inhibition at 5 µM is 56.9% in the data set with L1210 [2] and 52.2% in the data set on L1210 [8]. For the same compound, the inhibition at 3 µM was found to be 34.5% with L1210 [3] and 50.8% in the data set with L1210 [6]. Also, the inhibition at 1 µM turned out to be 22.5% with L1210 [4] and 28.9% with L1210 [7]. The compound also displayed a Drug uptake in the data set with L1210 [5] of 0.19 nmol.
Regarding `COc1cccc2c1C(=O)C1=C(C2=O)C(O)C2=C(C1O)[C@@H](C[C@@H]1C[C@H](N)[C@@H](O)[C@H](C)O1)C[C@@](O)(/C(C)=N/NC(=O)c1ccccc1)C2` (stereo not given in full) [RUBIDAZONE], the Ratio with L1210 [1] is given as 60; in the data set with L1210 [9], 65. Moreover, the inhibition at 5 µM with L1210 [2] is 58.2%; in the data set on L1210 [8], 41%. In addition, the inhibition at 3 µM came out at 27.2% in the data set on L1210 [3] and 36.8% in the data set with L1210 [6]. For the same compound, the inhibition at 1 µM is 11.6% in the data set with L1210 [4] and 12.7% in the data set on L1210 [7]. Also, in the data set with L1210 [5], the Drug uptake was found to be 0.2 nmol.
